Laboratory results taken from patent publication US5508180A, “Biocatalytic oxidation using soybean peroxidase” (Enzymol International, Inc., priority 1994, dated 1996).

Legend:
Assay type in all cases: biochemical
soybean peroxidase [1] = biological target: T1, soybean peroxidase (Glycine max, UniProt O22443); assay: Demethylation (oxidation) of methoxybenzenes by soybean peroxidase, absorbance of quinone products; conditions: for dA per minute (250 nm) / dA per minute (310 nm): pH 2
T1 construct: secreted heme glycoprotein, reported 37 kDa
T1 sequence (O22443 27-332): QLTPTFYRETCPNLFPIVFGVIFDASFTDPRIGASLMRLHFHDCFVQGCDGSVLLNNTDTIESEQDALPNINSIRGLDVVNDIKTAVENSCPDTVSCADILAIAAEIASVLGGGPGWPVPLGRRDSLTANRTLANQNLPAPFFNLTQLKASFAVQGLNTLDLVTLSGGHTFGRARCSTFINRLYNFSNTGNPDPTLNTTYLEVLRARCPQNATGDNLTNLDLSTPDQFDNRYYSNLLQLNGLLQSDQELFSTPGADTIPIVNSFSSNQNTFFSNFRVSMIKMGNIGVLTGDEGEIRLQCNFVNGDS
Procedure: (§1) 0.1 ml soybean peroxidase (120 purpurogallin units/ml) stock solution was added to 3 ml veratryl alcohol solution (1 g veratryl alcohol in 750 ml water) and vortexed in a test tube. 20 μl peroxide stock solution was added, mixed and the solution poured into a 1 cm path, 4 ml quartz cuvette. Using a Shimadzu UV-160 double beam recording spectophotometer, the change in absorbance of the sample compared to a reference cuvette containing 3 ml veratryl alcohol solution only was monitored every minute by scanning wavelengths from 500 to 200 nm. The peak wavelength of 308 nm was identified as veratryl aldehyde and was used for further monitoring. The kinetics of the reaction were determined from the linear portion of the increase in absorbance.
Using assay methods described in Example 15, three methoxybenzenes were tested for oxidation by soybean peroxidase (SBP). These compounds were: 1,4-Dimethoxybenzene (DMB), 1,2,3-Trimethoxybenzene (TMB) and 1,3,5-Trimethoxybenzene (TMB). Stock solutions were prepared by heating 1 g (0.5g 1,3,5-TMB) in 750 ml water to 60 deg C on a stirring hot plate, allowing the solution to cool to room temperature and adjusting the pH to 2 with HCl. Assays were performed as described in Example 1. Initially, a scan of wavelengths from 500 to 200 nm every minute was done during each substrate oxidation to find suitable wavelengths to monitor for the corresponding quinone products.
For example, a comparison of the rates of oxidation of 1,4-dimethoxybenzene at pH 2 where the pH was adjusted with HCl in one case and with HNO3 in a second case is shown in Table 11.

soybean peroxidase [2] = biological target: T1, soybean peroxidase; assay: Oxidation of veratryl alcohol to veratryl aldehyde by soybean peroxidase and hydrogen peroxide, absorbance at 308 nm
Procedure: Preparation of Soybean Peroxidase Solution: Purified soybean peroxidase was lyophilized to give a powder at 120 purpurogallin units (as defined by Sigma) per mg. Purification was done with addition of 5 mM CaCl2, but without buffers or other non-volatile substances which would carry over with the enzyme in the powder. Lyophilization typically yielded 4.5 g from 60 ml. […] Using the extinction coefficient reported for heme in HRP ([…] at 403 nm in 0.1M Tris pH 7), and the reported molecular weight of SBP (37,000), the solid was 60% peroxidase by weight.
Preparation of peroxide stock solution: 1.5 ml of 30% hydrogen peroxide was diluted to 100 ml with water to provide a 0,147M stock solution of hydrogen peroxide.
as §1
To determine the effects of pH on the oxidation of veratryl alcohol, a veratryl alcohol stock solution containing 20 mM CaCl2 was divided into 9 samples and each sample treated with HCl to provide 9 samples ranging in pH from 1.25 to 3.3 ml of solution was withdrawn from each sample and the change in absorbance (dA) of veratryl alcohol in each sample was measured at 308 nm at room temperature.
To determine the effects of temperature on veratryl alcohol oxidation at a pH of 2, 5 samples of a veratryl alcohol stock solution without CaCl2 were obtained and the absorbance of veratryl alcohol was measured at varying temperatures. The samples were incubated in a circulating water bath and cuvette blocks were preheated by connection with the same bath. The test cuvette was left empty in the block to equilibrate prior to assay. Enzyme and peroxide stock solutions were stored at room temperature. Assay was initiated by pouring the alcohol solution into the cuvette, adding 0.1 ml enzyme, inverting, adding 20 ul peroxide, inverting, and immediately starting to record change in absorbance.

soybean peroxidase [3] = biological target: T1, soybean peroxidase; assay: Oxygen-mediated hydroxylation of tyrosine by soybean peroxidase with dihydroxyfumaric acid, loss of DHF absorbance
Procedure: Tyrosine, 0.2 g was added to 150 ml water and HCl was added until the tyrosine dissolved at about pH 3. Dihydroxyfumaric acid (DHF), 0.44 g was added to 100 ml water and dilute (1%) sodium hydroxide was added until the acid dissolved at about pH 3.
Hydroxylation of tyrosine was achieved by mixing 2 ml tyrosine solution, 1 ml 0.1M buffer selected from a range of pH 1-13, 0.1 ml soybean peroxidase at 10 mg/ml and last, adding 0.1 ml DHF stock solution. The reference curvette contained the same mixture of tyrosine, buffer and DHF stock solutions. No hydrogen peroxide was used in these reaction. Dissolved oxygen from air served as the source of oxidant. Peak wavelength corresponding to DHF, determined by DHF absorbance in the solution, was monitored for loss in absorbance, indicating consumption of the reducing agent and hydroxylation of the phenol. Oxidation was followed by monitoring wavelengths from 500 to 200 nm at zero time and 1 minute of reaction. The absorbance difference at the wavelength corresponding to loss of DHF was recorded.

COc1ccc(OC)cc1 [1,4-DMB, 1,4-Dimethoxybenzene]
dA per minute (250 nm) (soybean peroxidase [1]; 25 °C): 1.0134 | dA per minute (310 nm) (soybean peroxidase [1]; 25 °C): 0.3566 | dA per minute (250 nm) (soybean peroxidase [1]; 35 °C): 1.1306 | dA per minute (310 nm) (soybean peroxidase [1]; 35 °C): 0.3942 | dA per minute (250 nm) (soybean peroxidase [1]; 45 °C): 1.817 | dA per minute (310 nm) (soybean peroxidase [1]; 45 °C): 0.745 | dA per minute (250 nm) (soybean peroxidase [1]; 55 °C): 2.73 | dA per minute (310 nm) (soybean peroxidase [1]; 55 °C): 1.088 | dA per minute (250 nm) (soybean peroxidase [1]; 65 °C): 2.99 | dA per minute (310 nm) (soybean peroxidase [1]; 65 °C): 0.437 | dA per minute (250 nm) (soybean peroxidase [1]; 75 °C): 0.883 | dA per minute (310 nm) (soybean peroxidase [1]; 75 °C): 0.129 | dA per minute (250 nm) (soybean peroxidase [1]; 85 °C): 0.0619 | dA per minute (310 nm) (soybean peroxidase [1]; 85 °C): 0.0237 | dA per minute (250 nm) (soybean peroxidase [1]; 95 °C): 0.0777 | dA per minute (310 nm) (soybean peroxidase [1]; 95 °C): 0.0296 | dA 250 nm per min (soybean peroxidase [1]; pH 2 adjusted with HCl): 1.275 | dA 310 nm per min (soybean peroxidase [1]; pH 2 adjusted with HCl): 0.3273 | dA 250 nm per min (soybean peroxidase [1]; pH 2 adjusted with HNO3): 0.7202 | dA 310 nm per min (soybean peroxidase [1]; pH 2 adjusted with HNO3): 0.2934

COc1ccc(CO)cc1OC [veratryl alcohol, 3,4-dimethoxybenzyl alcohol]
activity (dA per minute at 308 nm) (soybean peroxidase [2]; 0.1M KCl/HCl buffer at pH 2): 0.2265 | dA per minute at 308 nm (soybean peroxidase [2]; 25 °C, pH 2, without CaCl2): 1.427 | dA per minute at 308 nm (soybean peroxidase [2]; 35 °C, pH 2, without CaCl2): 2.358 | dA per minute at 308 nm (soybean peroxidase [2]; 45 °C, pH 2, without CaCl2): 3.17 | dA per minute at 308 nm (soybean peroxidase [2]; 55 °C, pH 2, without CaCl2): 0.3467 | dA per minute at 308 nm (soybean peroxidase [2]; 65 °C, pH 2, without CaCl2): 0.0018 | dA per minute at 308 nm (soybean peroxidase [2]; pH 1.25, 20 mM CaCl2, room temperature): 0.0045 | dA per minute at 308 nm (soybean peroxidase [2]; pH 1.35, 20 mM CaCl2, room temperature): 0.0361 | dA per minute at 308 nm (soybean peroxidase [2]; pH 1.65, 20 mM CaCl2, room temperature): 0.2358 | dA per minute at 308 nm (soybean peroxidase [2]; pH 1.85, 20 mM CaCl2, room temperature): 1.611 | dA per minute at 308 nm (soybean peroxidase [2]; pH 2.15, 20 mM CaCl2, room temperature): 0.945 | dA per minute at 308 nm (soybean peroxidase [2]; pH 2.35, 20 mM CaCl2, room temperature): 0.2243 | dA per minute at 308 nm (soybean peroxidase [2]; pH 2.55, 20 mM CaCl2, room temperature): 0.1093 | dA per minute at 308 nm (soybean peroxidase [2]; pH 2.85, 20 mM CaCl2, room temperature): 0.0587 | dA per minute at 308 nm (soybean peroxidase [2]; pH 3, 20 mM CaCl2, room temperature): 0.0119 | pH optimum (soybean peroxidase [2]; veratryl alcohol oxidation): around 2

N[C@@H](Cc1ccc(O)cc1)C(=O)O [tyrosine, Tyrosine]
dA per min (soybean peroxidase [3]; pH 1, λ 310 nm, loss of DHF absorbance): 0 | dA per min (soybean peroxidase [3]; pH 2, λ 315 nm, loss of DHF absorbance): 0.012 | dA per min (soybean peroxidase [3]; pH 3, λ 321 nm, loss of DHF absorbance): 0.726 | dA per min (soybean peroxidase [3]; pH 3.5, λ 318 nm, loss of DHF absorbance): 0.886 | dA per min (soybean peroxidase [3]; pH 4, λ 319 nm, loss of DHF absorbance): 0.065 | dA per min (soybean peroxidase [3]; pH 4.5, λ 320 nm, loss of DHF absorbance): 0.391 | dA per min (soybean peroxidase [3]; pH 5, λ 303 nm, loss of DHF absorbance): 1.897 | dA per min (soybean peroxidase [3]; pH 5.5, λ 302 nm, loss of DHF absorbance): 0.971 | dA per min (soybean peroxidase [3]; pH 6, λ 302 nm, loss of DHF absorbance): 2.226 | dA per min (soybean peroxidase [3]; pH 6.5, λ 302 nm, loss of DHF absorbance): 2.134 | dA per min (soybean peroxidase [3]; pH 7, interference from Tris buffer): 0 | dA per min (soybean peroxidase [3]; pH 7.5, interference from Tris buffer): 0 | dA per min (soybean peroxidase [3]; pH 8, interference from Tris buffer): 0 | dA per min (soybean peroxidase [3]; pH 8.5, λ 305 nm, loss of DHF absorbance): 1.098 | dA per min (soybean peroxidase [3]; pH 9, λ 304 nm, loss of DHF absorbance): 1.705 | dA per min (soybean peroxidase [3]; pH 9.5, λ 302 nm, loss of DHF absorbance): 1.66 | dA per min (soybean peroxidase [3]; pH 10, λ 302 nm, loss of DHF absorbance): 0.768 | dA per min (soybean peroxidase [3]; pH 10.5, λ 302 nm, loss of DHF absorbance): 1.372 | dA per min (soybean peroxidase [3]; pH 11, λ 302 nm, loss of DHF absorbance): 1.988 | dA per min (soybean peroxidase [3]; pH 11.5, λ 305 nm, loss of DHF absorbance): 0.075 | dA per min (soybean peroxidase [3]; pH 12, λ 305 nm, loss of DHF absorbance): 0.069 | dA per min (soybean peroxidase [3]; pH 13, λ 305 nm, loss of DHF absorbance): 0
